Results: paper doi:10.1101/2021.06.16.448762v1 (biorxiv, 2021)

Tests used:
ThNAD-MEα/β2 = experiment: NADH formation at […] nm; format: biochemical, Tarenaya hassleriana; settings: read-out: Km malate; 4 mM NAD, 10 mM MnCl2, MES pH 6.2-6.4
ThNAD-MEβ2 = experiment: NADH formation at […] nm; format: biochemical, Tarenaya hassleriana; settings: read-out: Km malate; 4 mM NAD, 10 mM MnCl2, MES pH 6.2-6.4
GgNAD-MEβ2 = experiment: NADH formation at […] nm; format: biochemical, Gynandropsis gynandra; settings: read-out: Km malate; no aspartate; 4 mM NAD, 10 mM MnCl2, MES pH 6.2-6.4
ThNAD-MEβ1 = experiment: NADH formation at […] nm; format: biochemical, Tarenaya hassleriana; settings: read-out: Km malate; 4 mM NAD, 10 mM MnCl2, MES pH 6.2-6.4
ThNAD-MEα = experiment: NADH formation at […] nm; format: biochemical, Tarenaya hassleriana; settings: read-out: Km malate; 4 mM NAD, 10 mM MnCl2, MES pH 6.2-6.4
GgNAD-MEα/β2 = experiment: NADH formation at […] nm; format: biochemical, Gynandropsis gynandra; settings: read-out: Km malate; no aspartate; 4 mM NAD, 10 mM MnCl2, MES pH 6.2-6.4
ThNAD-MEα/β1 = experiment: NADH formation at […] nm; format: biochemical, Tarenaya hassleriana; settings: read-out: Km malate; 4 mM NAD, 10 mM MnCl2, MES pH 6.2-6.4
GgNAD-MEα = experiment: NADH formation at […] nm; format: biochemical, Gynandropsis gynandra; settings: read-out: Km malate; 4 mM NAD, 10 mM MnCl2, MES pH 6.2-6.4
purified protein = substrate: O=C(O)C[C@H](O)C(=O)O; experiment: purified protein; settings: no aspartate; 4 mM NAD, 10 mM MnCl2, MES pH 6.2-6.4; pH 6.0

O=C(O)C[C@H](O)C(=O)O [malate]
Km (ThNAD-MEα/β2): 3.4 ± 1 mM | Km (ThNAD-MEβ2): 6.8 ± 1.7 mM | Km (GgNAD-MEβ2): 2.6 ± 1 mM | Km (ThNAD-MEβ1): 9.2 ± 2.3 mM | Km (ThNAD-MEα): 5.4 ± 1.3 mM | Km (GgNAD-MEα/β2): 3.5 ± 0.5 mM | Km (ThNAD-MEα/β1): 6.6 ± 1.6 mM | Km (GgNAD-MEα): 3.1 ± 0.4 mM

B1: AtNAD-MEα/β (Arabidopsis thaliana) (protein)
chain 1: PTIVHKQGLDILHDPWFNKGTAFTMTERNRLDLRGLLPPNVMDSEQQIFRFMTDLKRLEEQARDGPSDPNALAKWRILNRLHDRNETMYYKVLINNIEEYAPIVYTPTVGLVCQNYSGLFRRPRGMYFSAEDRGEMMSMVYNWPAEQVDMIVVTDGSRILGLGDLGVHGIGIAVGKLDLYVAAAGINPQRVLPVMIDVGTNNEKLRNDPMYLGLQQRRLEDDDYIDVIDEFMEAVYTRWPHVIVQFEDFQSKWAFKLLQRYRCTYRMFNDDVQGTAGVAIAGLLGAVRAQGRPMIDFPKMKIVVAGAGSAGIGVLNAARKTMARMLGNTETAFDSAQSQFWVVDAQGLITEGRENIDPEAQPFARKTKEMERQGLKEGATLVEVVREVKPDVLLGLSAVGGLFSKEVLEAMKGSTSTRPAIFAMSNPTKNAECTPQDAFSILGENMIFASGSPFKNVEFGNGHVGHCNQGNNMYLFPGIGLGTLLSGAPIVSDGMLQAASECLAAYMSEEEVLEGIIYPPISRIRDITKRIAAAVIKEAIEEDLVEGYREMDAREIQKLDEEGLMEYVENNMWNPEYPTLVYKDD
chain 2: CIVHKRGADILHDPWFNKDTGFPLTERDRLGIRGLLPPRVMTCVQQCDRFIESFRSLENNTKGEPENVVALAKWRMLNRLHDRNETLYYRVLIDNIKDFAPIIYTPTVGLVCQNYSGLYRRPRGMYFSAKDKGEMMSMIYNWPAPQVDMIVITDGSRILGLGDLGVQGIGIPIGKLDMYVAAAGINPQRVLPIMLDVGTNNEKLLQNDLYLGVRQPRLEGEEYLEIIDEFMEAAFTRWPKAVVQFEDFQAKWAFGTLERYRKKFCMFNDDVQGTAGVALAGLLGTVRAQGRPISDFVNQKIVVVGAGSAGLGVTKMAVQAVARMAGISESEATKNFYLIDKDGLVTTERTKLDPGAVLFAKNPAEIREGASIVEVVKKVRPHVLLGLSGVGGIFNEEVLKAMRESDSCKPAIFAMSNPTLNAECTAADAFKHAGGNIVFASGSPFENVELENGKVGHVNQANNMYLFPGIGLGTLLSGARIVTDGMLQAASECLASYMTDEEVQKGILYPSINNIRHITAEVGAAVLRAAVTDDIAEGHGDVGPKDLSHMSKEDTVNYITRNMWFPVYSPLVHEK
Km (purified protein): 3.2 ± 0.4 mM | kcat (purified protein): 30.7 ± 2.0 s⁻¹
